The results in this text go back to PubChem BioAssay AID308 (DTP/NCI, 2004).

The test system of the assay is BDF1 mice, L1210 6-MP/6-TG resistant leukemia ip, survival T/C. In words: NCI In Vivo Anticancer Drug Screen. Data for tumor model L1210 Leukemia resistant to 6-MP and 6-Thioguanine; NSC 755, NSC 752 (intraperitoneal) in B6D2F1 (BDF1) mice. The settings on record: endpoint: mean survival time, higher = longer survival. As to the method: The antitumor activity of compounds was measured in mice bearing transplantable tumors. Survival or tumor size were measured and the results are expressed as the measurement made in the treated group (T) divided by the measurement made in the vehicle treated control group (C). The tumor model used in this assay is L1210 Leukemia resistant to 6-MP and 6-Thioguanine; NSC 755, NSC 752 (intraperitoneal) in B6D2F1 (BDF1) mice

Where [1] appears, read: dose: 5.0 mg/kg/injection, schedule: Q01DX Z (ip), vehicle: carboxymethylcellulose (CMC).
Where [2] appears, read: dose: 10.0 mg/kg/injection, schedule: Q01DX Z (ip), vehicle: carboxymethylcellulose (CMC).
Setting [3] is: dose: 20.0 mg/kg/injection, schedule: Q01DX Z (ip), vehicle: carboxymethylcellulose (CMC).
Setting [4] is: dose: 7.5 mg/kg/injection, schedule: Q01DX Z (ip), vehicle: carboxymethylcellulose (CMC).
The mark [5] stands for this setting: dose: 15.0 mg/kg/injection, schedule: Q01DX Z (ip), vehicle: carboxymethylcellulose (CMC).
[6] abbreviates: dose: 12.5 mg/kg/injection, schedule: Q01DX015 (ip), vehicle: carboxymethylcellulose (CMC).
The mark [7] stands for this setting: dose: 3.75 mg/kg/injection, schedule: Q01DX Z (ip), vehicle: carboxymethylcellulose (CMC).

Toxic doses and inconclusive results are not listed.

`O=c1[nH]cnc2n[nH]nc12`: the T/C was 99 % of control (dose: 278.0 mg/kg/injection, schedule: Q01DX009 (ip), vehicle: saline with Tween-80); 96 % of control (dose: 423.0 mg/kg/injection, schedule: Q01DX009 (ip), vehicle: Klucel (hydroxypropylcellulose) (HPC)); 98 % of control (dose: 423.0 mg/kg/injection, schedule: Q01DX009 (ip), vehicle: saline with Tween-80); 100 % of control (dose: 632.0 mg/kg/injection, schedule: Q01DX009 (ip), vehicle: Klucel (hydroxypropylcellulose) (HPC)); 98 % of control (dose: 632.0 mg/kg/injection, schedule: Q01DX009 (ip), vehicle: saline with Tween-80); 94 % of control (dose: 948.0 mg/kg/injection, schedule: Q01DX009 (ip), vehicle: saline with Tween-80).

`O=C(O)CCCc1ccc(N(CCCl)CCCl)cc1`: the T/C reads like this: under setting [1], 117 % of control; under setting [2], 114 % of control; under setting [3], 115 % of control; (dose: 30.0 mg/kg/injection, schedule: Q01DX Z (ip), vehicle: carboxymethylcellulose (CMC)) 89 % of control.

For `C=C(C)CSc1ncnc2nc[nH]c12`, the T/C reads like this: (dose: 62.0 mg/kg/injection, schedule: Q01DX015 (ip), vehicle: other) 109 % of control; (dose: 125.0 mg/kg/injection, schedule: Q01DX015 (ip), vehicle: other) 95 % of control; (dose: 250.0 mg/kg/injection, schedule: Q01DX015 (ip), vehicle: other) 100 % of control.

With `Nc1nc(SCc2ccccc2)c2ncn(C3OC(CO)CC3O)c2n1` (centres undefined), the T/C was 100 % of control (dose: 18.75 mg/kg/injection, schedule: Q01DX009 (ip), vehicle: other); 97 % of control (dose: 37.5 mg/kg/injection, schedule: Q01DX009 (ip), vehicle: other); 99 % of control (dose: 75.0 mg/kg/injection, schedule: Q01DX009 (ip), vehicle: other); 91 % of control (dose: 150.0 mg/kg/injection, schedule: Q01DX009 (ip), vehicle: other).

`Nc1ncnc2[nH]ncc12`: the T/C was 105 % of control under setting [4]; 92 % of control under setting [2]; 94 % of control under setting [5]; 97 % of control (dose: 25.0 mg/kg/injection, schedule: Q01DX Z (ip), vehicle: carboxymethylcellulose (CMC)).

As for `CCn1cnc2c(=S)nc[nH]c21`, the T/C runs as follows: (dose: 50.0 mg/kg/injection, schedule: Q01DX Z (ip), vehicle: carboxymethylcellulose (CMC)) 91 % of control; (dose: 75.0 mg/kg/injection, schedule: Q01DX Z (ip), vehicle: carboxymethylcellulose (CMC)) 94 % of control; (dose: 100.0 mg/kg/injection, schedule: Q01DX Z (ip), vehicle: carboxymethylcellulose (CMC)) 92 % of control; (dose: 150.0 mg/kg/injection, schedule: Q01DX Z (ip), vehicle: carboxymethylcellulose (CMC)) 87 % of control.

Take `c1nc(SC2CCCC2)c2[nH]cnc2n1`: the T/C runs as follows: (dose: 80.0 mg/kg/injection, schedule: Q01DX Z (ip), vehicle: carboxymethylcellulose (CMC)) 96 % of control; (dose: 160.0 mg/kg/injection, schedule: Q01DX Z (ip), vehicle: carboxymethylcellulose (CMC)) 110 % of control; (dose: 320.0 mg/kg/injection, schedule: Q01DX Z (ip), vehicle: carboxymethylcellulose (CMC)) 89 % of control.

For `CN(N=O)C(=O)NCCSc1ncnc2nc[nH]c12`, the T/C runs as follows: (dose: 88.0 mg/kg/injection, schedule: Q01DX015 (ip), vehicle: other) 104 % of control; (dose: 132.0 mg/kg/injection, schedule: Q01DX015 (ip), vehicle: other) 108 % of control; (dose: 200.0 mg/kg/injection, schedule: Q01DX015 (ip), vehicle: other) 108 % of control; (dose: 300.0 mg/kg/injection, schedule: Q01DX015 (ip), vehicle: other) 102 % of control.

As for `Cn1cnc([N+](=O)[O-])c1Sc1nc(N)nc2nc[nH]c12`, the T/C was 95 % of control under setting [4], 92 % of control under setting [2], 90 % of control under setting [5] and 89 % of control under setting [3].

Turning to `Nc1nc(=S)c2ncn(C3OC(COC(=O)c4ccc(Cl)cc4)C(OC(=O)c4ccc(Cl)cc4)C3OC(=O)c3ccc(Cl)cc3)c2[nH]1` (centres undefined), the T/C is 88 % of control (dose: 6.25 mg/kg/injection, schedule: Q01DX015 (ip), vehicle: carboxymethylcellulose (CMC)); 87 % of control under setting [6]; 86 % of control (dose: 100.0 mg/kg/injection, schedule: Q01DX015 (ip), vehicle: carboxymethylcellulose (CMC)).

On to `Clc1ccccc1CSc1ncnc2nc[nH]c12`, for which the T/C (dose: 62.5 mg/kg/injection, schedule: Q01DX Z (ip), vehicle: other) was 96 % of control; the T/C (dose: 125.0 mg/kg/injection, schedule: Q01DX Z (ip), vehicle: other) is 92 % of control; the T/C (dose: 250.0 mg/kg/injection, schedule: Q01DX Z (ip), vehicle: other) was 86 % of control.

Take `C[N+](C)(C)c1ncnc2nc[nH]c12`: the T/C by setting is: (dose: 11.25 mg/kg/injection, schedule: Q01DX Z (ip), vehicle: saline) 101 % of control; (dose: 22.5 mg/kg/injection, schedule: Q01DX Z (ip), vehicle: saline) 100 % of control; (dose: 45.0 mg/kg/injection, schedule: Q01DX Z (ip), vehicle: saline) 102 % of control; (dose: 50.0 mg/kg/injection, schedule: Q01DX Z (ip), vehicle: saline) 105 % of control; (dose: 90.0 mg/kg/injection, schedule: Q01DX Z (ip), vehicle: saline) 94 % of control; (dose: 100.0 mg/kg/injection, schedule: Q01DX Z (ip), vehicle: saline) 99 % of control.

Regarding `NC(Cc1ccc(N(CCCl)CCCl)cc1)C(=O)O` (centres undefined), the T/C (dose: 0.5 mg/kg/injection, schedule: Q01DX Z (ip), vehicle: carboxymethylcellulose (CMC)) was 163 % of control; the T/C (dose: 0.75 mg/kg/injection, schedule: Q01DX Z (ip), vehicle: carboxymethylcellulose (CMC)) was 155 % of control; the T/C (dose: 1.0 mg/kg/injection, schedule: Q01DX Z (ip), vehicle: carboxymethylcellulose (CMC)) is 188 % of control; the T/C (dose: 2.5 mg/kg/injection, schedule: Q01DX Z (ip), vehicle: carboxymethylcellulose (CMC)) is 195 % of control; the T/C under setting [7] is 195 % of control; the T/C under setting [1] is 155 % of control. In addition, the T/C under setting [4] was 119 % of control.

Turning to `COC12C(COC(N)=O)C3=C(C(=O)C(C)=C(N)C3=O)N1CC1C2N1C` (centres undefined), the T/C runs as follows: (dose: 1.3 mg/kg/injection, schedule: Q01DX015 (ip), vehicle: carboxymethylcellulose (CMC)) 166 % of control; (dose: 1.9 mg/kg/injection, schedule: Q01DX015 (ip), vehicle: carboxymethylcellulose (CMC)) 120 % of control; (dose: 2.0 mg/kg/injection, schedule: Q01DX015 (ip), vehicle: carboxymethylcellulose (CMC)) 254 % of control; (dose: 2.9 mg/kg/injection, schedule: Q01DX015 (ip), vehicle: carboxymethylcellulose (CMC)) 181 % of control; (dose: 3.0 mg/kg/injection, schedule: Q01DX015 (ip), vehicle: carboxymethylcellulose (CMC)) 229 % of control; (dose: 4.4 mg/kg/injection, schedule: Q01DX015 (ip), vehicle: carboxymethylcellulose (CMC)) 123 % of control. Moreover, the T/C (dose: 4.5 mg/kg/injection, schedule: Q01DX015 (ip), vehicle: carboxymethylcellulose (CMC)) was 189 % of control and the T/C (dose: 6.75 mg/kg/injection, schedule: Q01DX015 (ip), vehicle: carboxymethylcellulose (CMC)) was 166 % of control.

For the molecule `C=CC(CN1CC1)OC(C)=O` (centres undefined), the T/C runs as follows: (dose: 3.0 mg/kg/injection, schedule: Q01DX Z (ip), vehicle: saline) 116 % of control; (dose: 12.0 mg/kg/injection, schedule: Q01DX Z (ip), vehicle: saline) 150 % of control; (dose: 15.0 mg/kg/injection, schedule: Q01DX Z (ip), vehicle: saline) 91 % of control.

Take `CN(C)/N=N/c1nc[nH]c1C(N)=O`: the T/C runs as follows: under setting [6], 104 % of control; (dose: 25.0 mg/kg/injection, schedule: Q01DX015 (ip), vehicle: carboxymethylcellulose (CMC)) 107 % of control; (dose: 50.0 mg/kg/injection, schedule: Q01DX015 (ip), vehicle: carboxymethylcellulose (CMC)) 112 % of control; (dose: 200.0 mg/kg/injection, schedule: Q01DX015 (ip), vehicle: carboxymethylcellulose (CMC)) 115 % of control.

Turning to `Nc1nc(=S)c2ncn(C3OC(CO)C(O)C3O)c2[nH]1` (centres undefined), the T/C is 96 % of control under setting [7], 93 % of control under setting [1], 107 % of control under setting [4] and 93 % of control under setting [2].
